Data: patent US8431593B2, “Heteroaryl amide derivatives” (H. Lundbeck A/S, priority 2006, dated 2013)

Target: T1, P2X7 receptor (Homo sapiens, UniProt Q99572)
T1 construct: host or cells: SH-SY5Y
T1 sequence (Q99572 1-595): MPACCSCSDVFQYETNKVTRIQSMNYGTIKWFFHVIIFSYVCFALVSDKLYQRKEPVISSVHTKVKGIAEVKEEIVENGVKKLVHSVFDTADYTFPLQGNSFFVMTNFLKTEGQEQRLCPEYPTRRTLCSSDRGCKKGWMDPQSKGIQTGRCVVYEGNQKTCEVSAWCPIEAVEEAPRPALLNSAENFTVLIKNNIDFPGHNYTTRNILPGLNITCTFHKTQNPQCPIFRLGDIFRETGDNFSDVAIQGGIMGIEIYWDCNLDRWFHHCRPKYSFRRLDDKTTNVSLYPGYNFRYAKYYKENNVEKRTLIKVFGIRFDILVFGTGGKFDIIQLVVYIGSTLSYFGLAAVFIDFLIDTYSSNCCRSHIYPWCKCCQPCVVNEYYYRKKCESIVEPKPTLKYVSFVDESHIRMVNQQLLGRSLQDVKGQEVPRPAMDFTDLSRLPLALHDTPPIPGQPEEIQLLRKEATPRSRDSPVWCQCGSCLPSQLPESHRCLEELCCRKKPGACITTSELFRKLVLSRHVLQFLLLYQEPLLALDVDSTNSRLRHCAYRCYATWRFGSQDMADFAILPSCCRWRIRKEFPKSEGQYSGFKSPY
Assay: P2X7 calcium mobilization assay, high throughput, antagonist activity (Example 4A)
Format: cell-based
Conditions: not given
Method in brief: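 Antagonism was measured as calcium mobilization on FLIPR^TETRA after a 1 h room-temperature compound preincubation of dye-loaded cells. Baseline from no-agonist wells was subtracted from each well's maximum RFU.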

Compound	IC50
CC(C)CC(CNC(=O)c1cccc2nc(CC(=O)N3CCC4(CC3)OCCO4)cn12)c1ccccc1 (stereo not shown) [Compound 247, 2-[2-(1,4-dioxa-8-azaspiro[4.5]dec-8-yl)-2-oxoethyl]-N-(4-methyl-2-phenylpentyl)imidazo [1,2-a]pyridine-5-carboxamide]	< 2000 nM
CC(C)CC(CNC(=O)c1cccc2nc(C(=O)N3CCC4(CC3)OCCO4)cn12)c1ccccc1 (stereo not shown) [Compound 263, 2-(1,4-dioxa-8-azaspiro[4.5]dec-8-ylcarbonyl)-N-(4-methyl-2-phenylpentyl)imidazo [1,2-a]pyridine-5-carboxamide]	< 2000 nM

Same assay, conditions: fluorescence response of cells exposed to 80 μM 2′(3′)-O-(4-benzoyl-benzoyl)adenosine 5′-triphosphate; Example 4A; read-out: IC50

Compound	IC50
CC(C)CC(CNC(=O)c1cccc2nc(CC(=O)NCC3CC3)cn12)c1ccccc1 (stereo not shown) [Compound 222, 2-{2-[(cyclopropylmethyl)amino]-2-oxoethyl}-N-(4-methyl-2-phenylpentyl) imidazo [1,2-a]pyridine-5-carboxamide]	< 2000 nM
CC(C)CNC(=O)Cc1cn2c(C(=O)NCC(CC(C)C)c3ccccc3)cccc2n1 (stereo not shown) [Compound 223, 2-[2-(isobutylamino)-2-oxoethyl]-N-(4-methyl-2-phenylpentyl) imidazo [1,2-a]pyridine-5-carboxamide]	< 2000 nM
CC(C)CC(CNC(=O)c1cccc2nc(CC(=O)NC3CCCC3)cn12)c1ccccc1 (stereo not shown) [Compound 224, 2-[2-(cyclopentylamino)-2-oxoethyl]-N-(4-methyl-2-phenylpentyl) imidazo [1,2-a]pyridine-5-carboxamide]	< 2000 nM
CC(C)CC(CNC(=O)c1cccc2nc(CC(=O)NCC(C)(C)C)cn12)c1ccccc1 (stereo not shown) [Compound 225, 2-{2-[(2,2-dimethylpropyl)amino]-2-oxoethyl}-N-(4-methyl-2-phenylpentyl) imidazo [1,2-a]pyridine-5-carboxamide]	< 2000 nM
CC(C)CC(CNC(=O)c1cccc2nc(CC(=O)NCC(F)(F)F)cn12)c1ccccc1 (stereo not shown) [Compound 229, N-(4-methyl-2-phenylpentyl)-2-{2-oxo-2-[(2,2,2-trifluoroethyl)amino]ethyl}imidazo[1,2-a]pyridine-5-carboxamide]	< 2000 nM
CCCOCCNC(=O)Cc1cn2c(C(=O)NCC(CC(C)C)c3ccccc3)cccc2n1 (stereo not shown) [Compound 230, N-(4-methyl-2-phenylpentyl)-2-{2-oxo-2-[(2-propoxyethyl)amino]ethyl}imidazo[1,2-a]pyridine-5-carboxamide]	< 2000 nM
CCC(COC)NC(=O)Cc1cn2c(C(=O)NCC(CC(C)C)c3ccccc3)cccc2n1 (stereo not shown) [Compound 231, 2-(2-{[1-(methoxymethyl)propyl]amino}-2-oxoethyl)-N-(4-methyl-2-phenylpentyl) imidazo [1,2-a]pyridine-5-carboxamide]	< 2000 nM
CC(C)CC(CNC(=O)c1cccc2nc(CC(=O)NC(C)C(N)=O)cn12)c1ccccc1 (stereo not shown) [Compound 235, 2-{2-[(2-amino-1-methyl-2-oxoethyl)amino]-2-oxoethyl}-N-(4-methyl-2-phenylpentyl)imidazo [1,2-a]pyridine-5-carboxamide]	< 2000 nM
CC(C)CC(CNC(=O)c1cccc2nc(CC(=O)N3CCCC(C(F)(F)F)C3)cn12)c1ccccc1 (stereo not shown) [Compound 238, N-(4-methyl-2-phenylpentyl)-2-{2-oxo-2-[3-(trifluoromethyl)piperidin-1-yl]ethyl}imidazo [1,2-a]pyridine-5-carboxamide]	< 2000 nM
COC1CCN(C(=O)Cc2cn3c(C(=O)NCC(CC(C)C)c4ccccc4)cccc3n2)CC1 (stereo not shown) [Compound 239, 2-[2-(4-methoxypiperidin-1-yl)-2-oxoethyl]-N-(4-methyl-2-phenylpentyl)imidazo [1,2-a]pyridine-5-carboxamide]	< 2000 nM
COCC1CCCN(C(=O)Cc2cn3c(C(=O)NCC(CC(C)C)c4ccccc4)cccc3n2)C1 (stereo not shown) [Compound 240, 2-{2-[3-(methoxymethyl)piperidin-1-yl]-2-oxoethyl}-N-(4-methyl-2-phenylpentyl)imidazo [1,2-a]pyridine-5-carboxamide]	< 2000 nM
COCC1CCCCN1C(=O)Cc1cn2c(C(=O)NCC(CC(C)C)c3ccccc3)cccc2n1 (stereo not shown) [Compound 241, 2-{2-[2-(methoxymethyl)piperidin-1-yl]-2-oxoethyl}-N-(4-methyl-2-phenylpentyl)imidazo [1,2-a]pyridine-5-carboxamide]	< 2000 nM
CC(C)CC(CNC(=O)c1cccc2nc(CC(=O)N3CCCC3)cn12)c1ccccc1 (stereo not shown) [Compound 242, N-(4-methyl-2-phenylpentyl)-2-(2-oxo-2-pyrrolidin-1-ylethyl)imidazo[1,2-a]pyridine-5-carboxamide]	< 2000 nM
CC(C)CC(CNC(=O)c1cccc2nc(CC(=O)N3CCCCC3)cn12)c1ccccc1 (stereo not shown) [Compound 243, N-(4-methyl-2-phenylpentyl)-2-(2-oxo-2-piperidin-1-ylethyl)imidazo[1,2-a]pyridine-5-carboxamide]	< 2000 nM
CC(C)CC(CNC(=O)c1cccc2nc(CC(=O)N3CCCC(C)(C)C3)cn12)c1ccccc1 (stereo not shown) [Compound 244, 2-[2-(3,3-dimethylpiperidin-1-yl)-2-oxoethyl]-N-(4-methyl-2-phenylpentyl)imidazo [1,2-a]pyridine-5-carboxamide]	< 2000 nM
CCCN(C)C(=O)Cc1cn2c(C(=O)NCC(CC(C)C)c3ccccc3)cccc2n1 (stereo not shown) [Compound 246, N-(4-methyl-2-phenylpentyl)-2-{2-[methyl(propyl)amino]-2-oxoethyl)imidazo[1,2-a]pyridine-5-carboxamide]	< 2000 nM
N[C@@H]1CCN(Cc2cn3c(C(=O)NCCC45CC6CC(CC(C6)C4)C5)cccc3n2)C1 [Compound 248, N-(2-adamantan-1-ylethyl)-2-{[(3R)-3-aminopyrrolidin-1-yl]methyl}imidazo[1,2-a]pyridine-5-carboxamide]	< 2000 nM
CC1(C)C2CC[C@@H](CNC(=O)c3cccc4nc(CN5CC[C@@H](N)C5)cn34)C1C2 (stereo partly drawn) [Compound 249, 2-{[(3R)-3-aminopyrrolidin-1-yl]methyl}-N-{[(2R)-6,6-dimethylbicyclo[3.1.1]hept-2-yl]methyl}imidazo[1,2-a]pyridine-5-carboxamide]	< 2000 nM
COC[C@@H]1CCCN1C(=O)c1cn2c(C(=O)NCC(CC(C)C)c3ccccc3)cccc2n1 (stereo partly drawn) [Compound 257, 2-{[(2S)-2-(methoxymethyl)pyrrolidin-1-yl]carbonyl)-N-(4-methyl-2-phenylpentyl)imidazo [1,2-a]pyridine-5-carboxamide]	< 2000 nM
CC(C)CC(CNC(=O)c1cccc2nc(C(=O)N3CCCC3)cn12)c1ccccc1 (stereo not shown) [Compound 260, N-(4-methyl-2-phenylpentyl)-2-(pyrrolidin-1-ylcarbonyl)imidazo [1,2-a]pyridine-5-carboxamide]	< 2000 nM
CCCN(C)C(=O)c1cn2c(C(=O)NCC(CC(C)C)c3ccccc3)cccc2n1 (stereo not shown) [Compound 262, 2-N-methyl-5-N-(4-methyl-2-phenylpentyl)-2-N-propylimidazo[1,2-a]pyridine-2,5-dicarboxamide]	< 2000 nM
NCCSCc1cn2c(C(=O)NCC34CC5CC(CC(C5)C3)C4)cccc2n1 [Compound 266, N-(adamantan-1-ylmethyl)-2-{[(2-aminoethyl)thio]methyl}imidazo[1,2-a]pyridine-5-carboxamide]	< 2000 nM
O=C(NCC12CC3CC(CC(C3)C1)C2)c1cccc2nc(CS(=O)(=O)CCO)cn12 [Compound 267, N-(adamantan-1-ylmethyl)-2-{[(2-hydroxyethyl)sulfonyl]methyl}imidazo[1,2-a]pyridine-5-carboxamide]	< 2000 nM
CN(C)C(=O)NCCc1cn2c(C(=O)NCC34CC5CC(CC(C5)C3)C4)cccc2n1 [Compound 268, N-(adamantan-1-ylmethyl)-2-{2-[(dimethylcarbamoyl)amino]ethyl} imidazo[1,2-a] pyridine-5-carboxamide]	< 2000 nM
NCC(=O)NCCc1cn2c(C(=O)NCC34CC5CC(CC(C5)C3)C4)cccc2n1 [Compound 269, N-(adamantan-1-ylmethyl)-2-[2-(glycylamino)ethyl] imidazo[1,2-a] pyridine-5-carboxamide]	< 2000 nM
CNCC(=O)NCCc1cn2c(C(=O)NCC34CC5CC(CC(C5)C3)C4)cccc2n1 [Compound 270, N-(adamantan-1-ylmethyl)-2-{2-[(N-methylglycyl)amino]ethyl}imidazo[1,2-a] pyridine-5-carboxamide]	< 2000 nM
N#CCCc1cn2c(C(=O)NCC34CC5CC(CC(C5)C3)C4)cccc2n1 [Compound 274, N-(adamantan-1-ylmethyl)-2-(2-cyanoethyl)imidazo[1,2-a]pyridine-5-carboxamide]	< 2000 nM
Cc1nn(Cc2cn3c(C(=O)NCC45CC6CC(CC(C6)C4)C5)cccc3n2)cc1C(=O)O [Compound 275, 1-({5-[(adamantan-1-ylmethyl)carbamoyl]imidazo [1,2-a]pyridin-2-yl}methyl)-3-methyl-1H-pyrazole-4-carboxylic acid]	< 2000 nM
Cc1cc(C(=O)O)nn1Cc1cn2c(C(=O)NCC34CC5CC(CC(C5)C3)C4)cccc2n1 [Compound 276, 1-({5-[(adamantan-1-ylmethyl)carbamoyl]imidazo[1,2-a]pyridin-2-yl}methyl)-5-methyl-1H-pyrazole-3-carboxylic acid]	< 2000 nM
